From US8057992B2, “Methods for identifying peptides that bind to intact oocytes” (Auburn University, priority 2007, dated 2011)
Entries after “also recorded” stand apart in the source; their conditions may differ. Ends that are not written are not given here.

How the values were obtained:
[1] = test system: ZP proteins on intact canine oocytes; assay: Phage display selection of ZP-binding peptides on intact canine oocytes; conditions: four rounds of selection, 1000 intact canine oocytes per round, 7-mer and 12-mer phage display libraries
Method: The phage display procedure developed herein utilizes intact oocytes surrounded by ZP proteins. In this procedure, ZP proteins remain on oocytes in their native conformation, unlike previously published selection protocols that use denatured ZPs immobilized on an artificial solid support. The procedure involves incubating isolated oocytes with a phage display library followed by washing of unbound phage. Oocytes are lysed, and bound phage are amplified in bacterial cultures. Enrichment in ZP-binding phage clones is achieved in four subsequent selection rounds, after which selected phage DNAs are sequenced and translated to obtain peptide sequences.
Collection of dog ova: Oocytes were isolated from dog ovaries obtained from spay/neuter clinics. All ovaries were collected from bitches (six months of age and older) undergoing elective ovariohysterectomy. Approximately 20-30 oocytes from each pair of ovaries were isolated. Ova were washed extensively, retrieved by visual inspection at 12× magnification, washed two additional times, pooled and frozen before the use. Oocytes isolated from dog ovaries were characterized by microscopic evaluations.
Identification of peptides that bind to ZP proteins on intact canine oocytes: Peptides that specifically bind to ZP proteins were identified by utilizing two phage display libraries purchased from New England BioLabs, including: PhD-C7C Peptide 7-mer Library Kit and PhD-12 Peptide Library Kit. The utilized approach selects peptides that mimic the sperm antigen at the level of the ZP-sperm binding (FIG. 2).
Four rounds of selection were performed using each library. For each selection round, an aliquot of the primary library was diluted in a blocking buffer and incubated with 1000 intact canine oocytes surrounded by ZP. After incubation, phages expressing peptides not bound to oocytes were washed away and the bound phages were recovered by lysis. […] Peptide sequences from phage display selection on intact dog oocytes surrounded by ZP included: LNSFLRS (SEQ ID NO:1), LSTALRS (SEQ ID NO:2), SSWYRGA (SEQ ID NO:3), TGTSTRA (SEQ ID NO:4), YLPIYTIPSMVY (SEQ ID NO:5), NNQSPILKLSIH (SEQ ID NO:6), and AHPNTAPIHPKF (SEQ ID NO:7). Based on the peptide sequences, the following five antigens were prepared: antigen 1—YLPVGGLRRIGG (SEQ ID NO:14), antigen 2—CLNSFLRSC-KGG (SEQ ID NO:9), antigen 3—YLPIYTIPSMVY-GG (SEQ ID NO:12), antigen 4—NNQSPILKLSIH-GG (SEQ ID NO:13), and antigen 5—CSSWYRGAC-KGGY (SEQ ID NO:11).

canine sperm cells = assay: Sperm cell ELISA of serum from dogs immunized with antigen 4; format: in vivo; conditions: three dogs immunized with antigen 4; sperm cell ELISA at serum dilution 1:50 (FIG. 5)
dogs = assay: Peptide ELISA of serum from immunized dogs for anti-peptide antibodies; format: in vivo, dog
Method: Immunization of dogs with ZP-binding peptides conjugated to a carrier protein: The peptides were synthesized by Global Peptide Services (Fort Collins, Colo.) at a yield of 10-20 mg having 95% purity. Two of the selected peptides were 7 amino acids long and the other two were 12 amino acids long. Antigen was taken from the literature (6) to serve as a control. To assure maximum immunogenicity, the peptides were conjugated to keyhole-limpet hemocyanin (KLH), a carrier protein. For vaccinations, the antigen was formulated to include: 250 μg of KLH conjugated peptide mixed with aluminum hydroxide adjuvant (Alhydrogel 85) and 100 μg canine specific immunostimulatory oligodeoxynucleotide (CpG). Four of the selected peptides and one control peptide were injected intramusculary into each dog (one dog/peptide). Booster immunizations were given twice to achieve high titer antisera. Each immunized dog served as his/her own control since none were expected to have preexisting antibodies to the selected peptides.
Evaluation of serum collected from immunized dogs for anti-ZP-binding peptide antibodies: Serum samples were collected from all dogs prior to immunization and biweekly or monthly thereafter during a 12-month period. The samples were tested for the presence of anti-peptide antibodies in a peptide ELISA format. […] The immunization scheme was as described above.

Substance | binding to ZP (peptide sequences of phage selected on intact dog oocytes) [1] | also measured
AHPNTAPIHPKF (Phage library random peptide insert) [SEQ ID NO:7] | responsible for binding to ZP | 
LNSFLRS (Phage library random peptide insert) [SEQ ID NO:1] | responsible for binding to ZP | 
SSWYRGA (Phage library random peptide insert) [SEQ ID NO:3] | responsible for binding to ZP | 
YLPIYTIPSMVY (Phage library random peptide insert) [SEQ ID NO:5] | responsible for binding to ZP | 
LSTALRS (Phage library random peptide insert) [SEQ ID NO:2] | responsible for binding to ZP | 
NNQSPILKLSIH-GG (NNQSPILKLSIHGG; also: conjugated to carrier protein) [antigen 4] |  | binding of raised antibodies to canine sperm cells (anti-sperm antibody levels) (canine sperm cells): bind to canine sperm cells; immunogenicity: anti-peptide antibody levels in serum (dogs; one dog per antigen, 250 μg KLH conjugated peptide with aluminum hydroxide adjuvant and CpG, intramuscular, two boosts, peptide ELISA at serum dilution 1:6400 (FIG. 3)): specific anti-peptide antibodies at high levels; also recorded: high immunogenic properties; titers of anti-peptide antibodies (dogs; three additional dogs, same immunization scheme, peptide ELISA at serum dilution 1:6400 (FIG. 4)): high titers of anti-peptide antibodies
TGTSTRA (Phage library random peptide insert) [SEQ ID NO:4] | responsible for binding to ZP | 
NNQSPILKLSIH (Phage library random peptide insert) [SEQ ID NO:6] | responsible for binding to ZP | 
